Data reported in patent US11512079B2, “Heterocycle substituted pyridine derivative antifungal agents” (Amplyx Pharmaceuticals, Inc., priority 2017, dated 2022).
≈ marks a conversion by molar mass, not a printed value.

Assays:
Assay type in all cases: cell-based
[1] = test system: Aspergillus fumigatus MYA3626; experiment: In vitro antifungal assay (Example IX), microdilution broth, MEC; settings: minimum effective concentration (shortening of hyphae), 35° C., 40-48 h, RPMI1640
Method in brief: (§1)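 Read-out is the minimum effective concentration: lowest compound level causing shorter hyphae than in DMSO controls, echinocandin-style. Broth microdilution used conidia or spores harvested from agar plates, cleared of mycelium and clumps, at a final 1-2×10^4 spores/mL in RPMI1640.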

[2] = test system: Rhizomucor pusillus 46342; experiment: as above; settings: minimum effective concentration (shortening of hyphae), 35° C., 40-48 h, RPMI1640
Method in brief: as §1

[3] = test system: Cryptococcus neoformans H99; experiment: In vitro antifungal assay (Example IX), microdilution broth, MIC; settings: minimum inhibitory concentration (≥50% inhibition), 35° C., 72 h, RPMI1640
Method in brief: (§2)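 Yeast inocula (2.5×10^3 cells/mL, RPMI1640) were exposed to twofold compound series reaching 2-0.0019 μg/mL final, per CLSI yeast methodology. Incubation at 35° C. ran 40-48 h for Candida albicans 90028 and 72 h for Cryptococcus neoformans H99. MIC endpoints were confirmed by absorbance at 600 nm.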

Candida albicans 90028 = experiment: as above; settings: minimum inhibitory concentration (≥50% inhibition), 35° C., 40-48 h, RPMI1640
Method in brief: as §2

Cryptococcus gattii = experiment: as above; settings: minimum inhibitory concentration (≥50% inhibition), 35° C., 72 h (Cryptococcus), RPMI1640
Description: Preparation of Fungal Suspension. C. albicans 90028 and C. neoformans H99 strains were streaked from frozen stocks at −80° C. onto Sabouraud Dextrose Agar (SDA) plates. These were allowed to grow for 24 h (C. albicans) and 48 h (C. neoformans) at 35° C. before using them in the assay. 5-6 individual colonies were picked and diluted into sterile water to obtain a fungal suspension. The cell density of the suspension was determined and the culture diluted with RPMI1640 medium to obtain a fungal suspension of 2.5×10^3 cells/mL. The suspension was used in the MIC measurement as described below.
Preparation of Compound Stocks and Intermediate Dilutions: The compounds were weighed and DMSO was added to prepare a 10 mg/mL stock. The solutions were mixed by vortexing and sonication at 37° C. for 5-10 mins. The resulting solutions were sterile filtered using a PTFE filter, and aliquoted (12 μL or as needed) and stored at −20° C. Intermediate compound dilutions were prepared in sterile polypropylene tubes in 100% DMSO. The compound stock solution was first diluted in DMSO to obtain a concentration of […] to 0.19 μg/mL.
MIC/MEC Measurement: 99 μL 1 of the fungal suspension in RPMI1640 prepared as above was added to each well of a 96-well round bottom assay plate. 1 μL of the intermediate compound dilutions (200-0.19 μg/mL) were added to wells of the plate. This led to a 100-fold dilution of the intermediate dilutions resulting in a final compound concentration of 2-0.0019 μg/mL in the plate. 1 μL of DMSO was added to “No drug” control wells. The solutions were mixed by shaking on a plate shaker for 10 mins and plates incubated at 35° C. for 40-48 h (C. albicans, A. fumigatus, R. pusillus) and 72 h (Cryptococcus). […] This was validated by thorough mixing and reading at 600 nm on a microplate reader. The minimum concentration that led to shortening of hyphae as compared to hyphal growth in DMSO control wells was determined as the minimum effective concentration (MEC) for A. fumigatus and R. pusillus (as read for echinocandins). The use of the MIC and MEC endpoints against yeasts and molds, respectively has been described by Pfaller M A, Duncanson F, Messer S A, Moet G J, Jones R N, Castanheira M. Antimicrob Agents Chemother. 2011. 55(11):5155-8. In vitro activity of a novel broad-spectrum antifungal, E1210, tested against Aspergillus spp. determined by CLSI and EUCAST broth microdilution methods. Results are shown in Table 2, and the letters indicate the following ranges in μg/mL: […]

MIC [3]	MIC (Candida albicans 90028)	MIC (Cryptococcus gattii)	SMILES	minimal effective concentration [1]	minimal effective concentration [2]
> 1 µg/mL	> 1 µg/mL		N#CCc1ccc(Cc2cc(-c3cccnc3N)on2)cc1 [compound 2, 2-(4-((5-(2-aminopyridin-3-yl)isoxazol-3-yl)methyl)phenyl)acetonitrile]	0.1 to 1 µg/mL	> 1 µg/mL
> 1 µg/mL	> 1 µg/mL		COc1ccc(OCc2ccc(Cc3cc(-c4cccnc4N)on3)cc2)cc1OC [compound 104, 3-(3-(4-((3,4-dimethoxyphenoxy)methyl)benzyl)isoxazol-5-yl)pyridin-2-amine]	> 1 µg/mL	> 1 µg/mL
	0.1 to 1 µg/mL (≈ 0.247 to 2.47 µM)		COc1ccc(F)cc1OCc1ccc(Cc2cc(-c3cccnc3N)on2)cc1 [compound 192, 3-(3-(4-((5-fluoro-2-methoxyphenoxy)methyl)benzyl)isoxazol-5-yl)pyridin-2-amine]	0.1 to 1 µg/mL	> 1 µg/mL
	> 1 µg/mL		Nc1ncccc1-c1cc(Cc2ccc(/C=C/Cc3ccccc3)cc2)no1 [compound 194, (E)-3-(3-(4-(3-phenylprop-1-en-1-yl)benzyl)isoxazol-5-yl)pyridin-2-amine]	0.1 to 1 µg/mL	> 1 µg/mL
	> 1 µg/mL		CS(=O)(=O)Nc1cccc(Cc2ccc(Cc3cc(-c4cccnc4N)on3)cc2)c1 [compound 211, N-(3-(4-((5-(2-aminopyridin-3-yl)isoxazol-3-yl)methyl)benzyl)phenyl)methanesulfonamide]	> 1 µg/mL	> 1 µg/mL
	> 1 µg/mL		Nc1ncccc1-c1cc(Cc2ccc(OCCCc3ccc(OCc4ccccc4)cc3)nc2)no1 [compound 214, 3-(3-((6-(3-(4-(benzyloxy)phenyl)propoxy)pyridin-3-yl)methyl)isoxazol-5-yl)pyridin-2-amine]	> 1 µg/mL	> 1 µg/mL
> 1 µg/mL	> 1 µg/mL	> 1 µg/mL	Nc1ncccc1-c1cc(Cc2ccc(OCc3cc(Cl)nc(Cl)c3)nc2)no1 [compound 219, 3-(3-((6-((2,6-dichloropyridin-4-yl)methoxy)pyridin-3-yl)methyl)isoxazol-5-yl)pyridin-2-amine]	0.1 to 1 µg/mL	
	> 1 µg/mL		Nc1ncccc1-c1cc(Cc2ccc(S(=O)(=O)N3CCOCC3)cc2)no1 [compound 228, 3-(3-(4-(morpholinosulfonyl)benzyl)isoxazol-5-yl)pyridin-2-amine]	> 1 µg/mL	> 1 µg/mL
> 1 µg/mL	> 1 µg/mL	> 1 µg/mL	Nc1ncccc1-c1cc(Cc2ccc(/C=C/c3cccc(F)c3)cc2)no1 [compound 233, (E)-3-(3-(4-(3-fluorostyryl)benzyl)isoxazol-5-yl)pyridin-2-amine]	0.1 to 1 µg/mL	
0.1 to 1 µg/mL (≈ 0.264 to 2.64 µM)	> 1 µg/mL	0.1 to 1 µg/mL (≈ 0.264 to 2.64 µM)	Nc1ncccc1-c1cc(Cc2ccc(Nc3cc(F)cc(F)c3)nc2)no1 [compound 238, 5-((5-(2-aminopyridin-3-yl)isoxazol-3-yl)methyl)-N-(3,5-difluorophenyl)pyridin-2-amine]	> 1 µg/mL	
0.1 to 1 µg/mL (≈ 0.265 to 2.65 µM)	0.1 to 1 µg/mL (≈ 0.265 to 2.65 µM)	> 1 µg/mL	Nc1ncccc1-c1cc(Cc2cnc(OCc3cccc(F)c3)nc2)no1 [compound 249, 3-(3-((2-((3-fluorobenzyl)oxy)pyrimidin-5-yl)methyl)isoxazol-5-yl)pyridin-2-amine]	0.01 to 0.1 µg/mL	
0.1 to 1 µg/mL (≈ 0.254 to 2.54 µM)	0.1 to 1 µg/mL (≈ 0.254 to 2.54 µM)	0.1 to 1 µg/mL (≈ 0.254 to 2.54 µM)	Nc1ncccc1-c1cc(Cc2cnc(OCc3cccc(F)c3)c(F)c2)no1 [compound 251, 3-(3-((5-fluoro-6-((3-fluorobenzyl)oxy)pyridin-3-yl)methyl)isoxazol-5-yl)pyridin-2-amine]	0.01 to 0.1 µg/mL	
0.1 to 1 µg/mL (≈ 0.276 to 2.76 µM)	0.01 to 0.1 µg/mL (≈ 0.0276 to 0.276 µM)	> 1 µg/mL	Nc1ncccc1-c1cc(Cc2cnc(Oc3ccccc3)c(F)c2)no1 [compound 255, 3-(3-((5-fluoro-6-phenoxypyridin-3-yl)methyl)isoxazol-5-yl)pyridin-2-amine]	0.01 to 0.1 µg/mL	

Further lines, the compound ahead of its results:

SMILES	MIC [3]	MIC (Candida albicans 90028)	MIC (Cryptococcus gattii)	minimal effective concentration [1]	minimal effective concentration [2]
Nc1ncccc1-c1cc(Cc2ccc(OCc3ccnc(Cl)c3F)nc2)no1 [compound 210, 3-(3-((6-((2-chloro-3-fluoropyridin-4-yl)methoxy)pyridin-3-yl)methyl)isoxazol-5-yl)pyridin-2-amine]		> 1 µg/mL		> 1 µg/mL	> 1 µg/mL
Nc1ncccc1-c1cc(Cc2ccc(OCC(c3ccccc3)c3ccccc3)nc2)no1 [compound 215, 3-(3-((6-(2,2-diphenylethoxy)pyridin-3-yl)methyl)isoxazol-5-yl)pyridin-2-amine]		> 1 µg/mL		> 1 µg/mL	> 1 µg/mL
Cc1c(OCC(F)(F)F)ccnc1COc1ccc(Cc2cc(-c3cccnc3N)on2)cn1 [compound 217, 3-(3-((6-((3-methyl-4-(2,2,2-trifluoroethoxy)pyridin-2-yl)methoxy)pyridin-3-yl)methyl)isoxazol-5-yl)pyridin-2-amine]	> 1 µg/mL	> 1 µg/mL	> 1 µg/mL	> 1 µg/mL	
Nc1ncccc1-c1cc(Cc2ccc(N3CCOCC3)nc2)no1 [compound 227, 3-(3-((6-morpholinopyridin-3-yl)methyl)isoxazol-5-yl)pyridin-2-amine]		> 1 µg/mL		> 1 µg/mL	> 1 µg/mL
Nc1ncccc1-c1cc(Cc2ccc(N3CCCC3c3ccccc3)nc2)no1 (stereo not shown) [compound 229, 3-(3-((6-(2-phenylpyrrolidin-1-yl)pyridin-3-yl)methyl)isoxazol-5-yl)pyridin-2-amine]		> 1 µg/mL		> 1 µg/mL	> 1 µg/mL
Nc1ncccc1-c1cc(Cc2ccc(N3CCCCC3)nc2)no1 [compound 230, 3-(3-((6-(piperidin-1-yl)pyridin-3-yl)methyl)isoxazol-5-yl)pyridin-2-amine]		0.1 to 1 µg/mL (≈ 0.298 to 2.98 µM)		0.1 to 1 µg/mL	> 1 µg/mL
Nc1ncccc1-c1cc(Cc2cnc(OCC3CC3)c(F)c2)no1 [compound 247, 3-(3-((6-(cyclopropylmethoxy)-5-fluoropyridin-3-yl)methyl)isoxazol-5-yl)pyridin-2-amine]	0.1 to 1 µg/mL (≈ 0.294 to 2.94 µM)	0.01 to 0.1 µg/mL (≈ 0.0294 to 0.294 µM)	> 1 µg/mL	0.01 to 0.1 µg/mL	
Nc1ncccc1-c1cc(Cc2cnc(Oc3cc(F)cc(F)c3)nc2)no1 [compound 248, 3-(3-((2-(3,5-difluorophenoxy)pyrimidin-5-yl)methyl)isoxazol-5-yl)pyridin-2-amine]	> 1 µg/mL	> 1 µg/mL	> 1 µg/mL	0.1 to 1 µg/mL	
Nc1ncccc1-c1cc(Cc2cnc(Oc3cc(F)cc(F)c3)c(F)c2)no1 [compound 252, 3-(3-((6-(3,5-difluorophenoxy)-5-fluoropyridin-3-yl)methyl)isoxazol-5-yl)pyridin-2-amine]	0.1 to 1 µg/mL (≈ 0.251 to 2.51 µM)	0.1 to 1 µg/mL (≈ 0.251 to 2.51 µM)	0.1 to 1 µg/mL (≈ 0.251 to 2.51 µM)	0.1 to 1 µg/mL	
Nc1ncccc1-c1cc(Cc2cnc(Oc3ccccc3F)c(F)c2)no1 [compound 254, 3-(3-((5-fluoro-6-(2-fluorophenoxy)pyridin-3-yl)methyl)isoxazol-5-yl)pyridin-2-amine]	0.1 to 1 µg/mL (≈ 0.263 to 2.63 µM)	0.01 to 0.1 µg/mL (≈ 0.0263 to 0.263 µM)	> 1 µg/mL	0.01 to 0.1 µg/mL	
